Measured values published in ChEMBL document CHEMBL2417535, “Synthesis and structure-activity relationships evaluation of benzothiazinone derivatives as potential anti-tubercular agents” (Bioorg Med Chem Lett, 2013).
In brackets after ≈: the same amount, converted by molar mass.

Assays:
Vero = test: Cytotoxicity against african green monkey Vero cells after 72 hrs by MTT assay; format: cell-based; conditions: Chlorocebus sabaeus
[1] = test system: Mycobacterium tuberculosis; test: Antitubercular activity against Mycobacterium tuberculosis H37Ra ATCC 25177 by microplate alamar blue assay; format: functional
[2] = test system: Mycobacterium tuberculosis; test: Ratio of isoniazid MIC to compound MIC for Mycobacterium tuberculosis H37Rv ATCC 27294; format: functional
[3] = test system: Mycobacterium tuberculosis; test: Antitubercular activity against Mycobacterium tuberculosis H37Rv ATCC 27294 by microdilution plate assay; format: functional
[4] = Selectivity index, ratio of IC50 for african green monkey Vero cells to MIC for Mycobacterium tuberculosis H37Rv ATCC 27294; format: functional
[5] = Selectivity index, ratio of IC50 for african green monkey Vero cells to MIC for Mycobacterium tuberculosis H37Ra ATCC 25177; format: functional
[6] = Elimination half life in Sprague-Dawley rat at 10 mg/kg, iv; format: ADME, organism-based; parameters: dose 10 mg/kg, route intravenous; conditions: in vivo, read-out: beta t1/2 (converted)
Mus musculus = test: Acute toxicity in BALB/c mouse assessed as mortality at 2 g/kg, po; format: organism-based; conditions: in vivo, 2000 mg/kg
[7] = Cmax in Sprague-Dawley rat at 20 mg/kg, po; format: ADME, organism-based; parameters: dose 20 mg/kg, route oral; conditions: in vivo
Mycobacterium avium = test: Antitubercular activity against Mycobacterium avium ATCC 25291 by microdilution plate assay; format: functional, Mycobacterium avium subsp. avium ATCC 25291
[8] = AUC (0 to infinity) in Sprague-Dawley rat at 10 mg/kg, iv; format: ADME, organism-based; parameters: time infinity, dose 10 mg/kg, route intravenous; conditions: plasma
[9] = Cmax in Sprague-Dawley rat at 10 mg/kg, iv; format: ADME, organism-based; parameters: dose 10 mg/kg, route intravenous; conditions: in vivo
[10] = Tmax in Sprague-Dawley rat at 20 mg/kg, po; format: ADME, organism-based; parameters: dose 20 mg/kg, route oral; conditions: in vivo
[11] = test system: Mycolicibacterium smegmatis; test: Antitubercular activity against Mycobacterium smegmatis MC2 155 by microplate alamar blue assay; format: functional; conditions: str. MC2 155
[12] = AUC (0 to infinity) in Sprague-Dawley rat at 20 mg/kg, po; format: ADME, organism-based; parameters: dose 20 mg/kg, route oral, time infinity; conditions: plasma
[13] = Elimination half life in Sprague-Dawley rat at 20 mg/kg, po; format: ADME, organism-based; parameters: dose 20 mg/kg, route oral; conditions: in vivo, read-out: beta t1/2 (converted)
[14] = Oral bioavailability in Sprague-Dawley rat at 20 mg/kg; format: ADME, organism-based; conditions: in vivo
[15] = Lipophilicity, log P of the compound by shake flask method; format: physicochemical; conditions: octanol/water

Row | Structure (SMILES) | IC50 (Vero) | MIC [1] | MIC [3] | Selectivity Index [4] | Selectivity Index [5] | also measured
1 | CC(C)(C)OC(=O)N1CCN(c2nc(=O)c3cc(C(F)(F)F)cc([N+](=O)[O-])c3s2)CC1 | > 100 µM | 0.02 µM (≈ 9.21 ng/mL) | 0.03 µM (≈ 13.8 ng/mL) | >3000 | – | Ratio [2]: 6.7
2 | O=c1nc(N2CCCCC2)sc2c([N+](=O)[O-])cc(C(F)(F)F)cc12 | > 100 µM | 0.8 µM (≈ 287 ng/mL) | 0.7 µM (≈ 252 ng/mL) | >142 | – | –
3 | CCNc1nc(=O)c2cc(C(F)(F)F)cc([N+](=O)[O-])c2s1 | > 100 µM | 6.3 µM (≈ 2010 ng/mL) | – | – | >16 | –
4 | O=c1nc(N2CCC3(CC2)SCCS3)sc2c([N+](=O)[O-])cc(C(F)(F)F)cc12 | > 100 µM | 0.001 µM (≈ 0.45 ng/mL) | 0.0001 µM (≈ 0.045 ng/mL) | >1000000 | – | half-life [6]: 2.5 h; Activity (Mus musculus): Non-toxic; Cmax [7]: 560 ng/mL; MIC (Mycobacterium avium): 36 µM (≈ 16200 ng/mL); AUC(0-inf) [8]: 1480 ng·h/mL; Cmax [9]: 1720 ng/mL; Tmax [10]: 0.5 h; Ratio [2]: 2000; MIC [11]: 0.0063 µM (≈ 2.83 ng/mL); AUC(0-inf) [12]: 780 ng·h/mL; half-life [13]: 5.4 h; bioavailability [14]: 26%; logP [15]: 3.94
5 | CC(C)CNc1nc(=O)c2cc(C(F)(F)F)cc([N+](=O)[O-])c2s1 | > 100 µM | 0.8 µM (≈ 278 ng/mL) | – | – | >125 | –
6 | O=c1nc(NC2CCCC2)sc2c([N+](=O)[O-])cc(C(F)(F)F)cc12 | > 100 µM | 0.8 µM (≈ 287 ng/mL) | – | – | >125 | –
7 | CC1COC2(CCN(c3nc(=O)c4cc(C(F)(F)F)cc([N+](=O)[O-])c4s3)CC2)O1 (racemic) | > 100 µM | 0.004 µM (≈ 1.73 ng/mL) | 0.002 µM (≈ 0.863 ng/mL) | >50000 | – | MIC (Mycobacterium avium): 74 µM (≈ 31900 ng/mL); MIC [11]: 0.013 µM (≈ 5.61 ng/mL); logP [15]: 2.69
8 | CC(C)(C)OC(=O)N1CCN(c2nc(=O)c3cc([N+](=O)[O-])cc([N+](=O)[O-])c3s2)CC1 | – | 0.4 µM (≈ 175 ng/mL) | – | – | – | –
9 | O=c1nc(N2CCC3(CC2)OCCS3)sc2c([N+](=O)[O-])cc(C(F)(F)F)cc12 | > 100 µM | 0.002 µM (≈ 0.867 ng/mL) | 0.002 µM (≈ 0.867 ng/mL) | >50000 | – | –
10 | CCCNc1nc(=O)c2cc(C(F)(F)F)cc([N+](=O)[O-])c2s1 | > 100 µM | 1.6 µM (≈ 533 ng/mL) | – | – | >62 | –
11 | O=c1nc(N2CCCC2)sc2c([N+](=O)[O-])cc(C(F)(F)F)cc12 | > 100 µM | 0.8 µM (≈ 276 ng/mL) | – | – | >125 | –
12 | CC1CCN(c2nc(=O)c3cc(C(F)(F)F)cc([N+](=O)[O-])c3s2)CC1 | > 100 µM | 0.1 µM (≈ 37.3 ng/mL) | 0.08 µM (≈ 29.9 ng/mL) | >1250 | – | Ratio [2]: 2.5
13 | O=c1nc(N2CCOCC2)sc2c([N+](=O)[O-])cc(C(F)(F)F)cc12 | > 100 µM | 3.1 µM (≈ 1120 ng/mL) | – | – | >32 | –
14 | CCCCNc1nc(=O)c2cc([N+](=O)[O-])cc([N+](=O)[O-])c2s1 | – | 0.8 µM (≈ 259 ng/mL) | – | – | – | –
15 | CC(C)(C)Nc1nc(=O)c2cc([N+](=O)[O-])cc([N+](=O)[O-])c2s1 | – | 0.4 µM (≈ 130 ng/mL) | – | – | – | –
16 | CCN(CC)c1nc(=O)c2cc(C(F)(F)F)cc([N+](=O)[O-])c2s1 | > 100 µM | 0.8 µM (≈ 278 ng/mL) | – | – | >125 | –
17 | O=C(O)C1CCN(c2nc(=O)c3cc(C(F)(F)F)cc([N+](=O)[O-])c3s2)CC1 | > 100 µM | 3.1 µM (≈ 1250 ng/mL) | – | – | >32 | –
18 | CC(C)CNc1nc(=O)c2cc([N+](=O)[O-])cc([N+](=O)[O-])c2s1 | – | 1.6 µM (≈ 519 ng/mL) | – | – | – | –
19 | NNC(=O)c1ccncc1 [ISONIAZID] | > 100 µM | 0.8 µM (≈ 110 ng/mL) | 0.2 µM (≈ 27.4 ng/mL) | >500 | – | –
20 | CCCCNc1nc(=O)c2cc(C(F)(F)F)cc([N+](=O)[O-])c2s1 | > 100 µM | 0.8 µM (≈ 278 ng/mL) | – | – | >125 | –
21 | O=c1nc(NC2CC2)sc2c([N+](=O)[O-])cc(C(F)(F)F)cc12 | > 100 µM | 0.4 µM (≈ 133 ng/mL) | – | – | >250 | –
22 | CC1CCN(c2nc(=O)c3cc([N+](=O)[O-])cc([N+](=O)[O-])c3s2)CC1 | – | 0.2 µM (≈ 70.1 ng/mL) | – | – | – | –
23 | CCCNc1nc(=O)c2cc([N+](=O)[O-])cc([N+](=O)[O-])c2s1 | – | 3.1 µM (≈ 962 ng/mL) | – | – | – | –
